Experimental data taken from ChEMBL document CHEMBL1629455, “Discovery of a novel class of biphenyl pyrazole sodium channel blockers for treatment of neuropathic pain” (Bioorg Med Chem Lett, 2010).

Tests used:
hERG (KCNH2) [1] = target: T1, hERG (KCNH2) (Homo sapiens, UniProt Q12809); assay: Inhibition of MK-0499 binding to human ERG at 10 uM; conditions: probe MK-0499
Canis familiaris [2] = assay: Cardiotoxicity in anesthetized dog assessed as effect on QTc interval at 10 mg/kg, iv; assay type: toxicity, organism-based, Canis lupus familiaris; set-up: dose 10 mg/kg, route intravenous; conditions: in vivo
[3] = Cmax in dog at 0.5 mg/kg, iv and 2 mg/kg, po; assay type: ADME, organism-based, Canis lupus familiaris; conditions: in vivo
Canis familiaris [4] = assay: Cardiotoxicity in anesthetized dog assessed as effect on QRS interval at 1 mg/kg, iv; assay type: toxicity, organism-based, Canis lupus familiaris; set-up: dose 1 mg/kg, route intravenous; conditions: in vivo
[5] = Half life in dog at 0.5 mg/kg, iv and 2 mg/kg, po; assay type: ADME, organism-based, Canis lupus familiaris; conditions: in vivo
Canis familiaris [6] = assay: Cardiotoxicity in anesthetized dog assessed as effect on mean arterial pressure at 3 mg/kg, iv; assay type: toxicity, organism-based, Canis lupus familiaris, Artery; set-up: dose 3 mg/kg, route intravenous; conditions: in vivo
Cytochrome P450 2D6 = Cytochrome P450 2D6 (Homo sapiens, UniProt P10635); assay: Inhibition of CYP2D6; assay type: ADME
Canis familiaris [7] = assay: Cardiotoxicity in anesthetized dog assessed as effect on QRS interval at 3 mg/kg, iv; assay type: toxicity, organism-based, Canis lupus familiaris; set-up: dose 3 mg/kg, route intravenous; conditions: in vivo
[8] = Metabolic stability in dog liver microsomes assessed as compound remaining after 60 mins in presence of 10 uM substrate; assay type: ADME, Canis lupus familiaris, Microsome; conditions: read-out: Stability
Canis familiaris [9] = assay: Cardiotoxicity in anesthetized dog assessed as effect on QTc interval at 1 mg/kg, iv; assay type: toxicity, organism-based, Canis lupus familiaris; set-up: dose 1 mg/kg, route intravenous; conditions: in vivo
[10] = target: Cav1.2 (L-type calcium channel subunit alpha-1C) (Homo sapiens, UniProt Q13936); assay: Inhibition of DLZ binding to Cav1.2 at 10 uM; conditions: probe DLZ
[11] = target: T2, Nuclear receptor subfamily 1 group I member 2 (Homo sapiens, UniProt O75469); assay: Induction of PXR
T2 sequence (O75469 whole entry): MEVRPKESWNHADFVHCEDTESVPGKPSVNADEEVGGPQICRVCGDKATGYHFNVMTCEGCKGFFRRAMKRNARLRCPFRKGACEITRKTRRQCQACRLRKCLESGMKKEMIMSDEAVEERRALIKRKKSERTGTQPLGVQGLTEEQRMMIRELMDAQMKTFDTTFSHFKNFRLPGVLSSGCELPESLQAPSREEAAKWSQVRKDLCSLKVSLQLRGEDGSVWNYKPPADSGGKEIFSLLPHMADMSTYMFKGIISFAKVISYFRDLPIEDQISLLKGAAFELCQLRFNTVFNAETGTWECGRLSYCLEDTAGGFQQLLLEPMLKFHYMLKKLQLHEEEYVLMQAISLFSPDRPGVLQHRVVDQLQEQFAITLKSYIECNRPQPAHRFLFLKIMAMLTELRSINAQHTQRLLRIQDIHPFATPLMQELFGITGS

Rattus norvegicus [12] = assay: Antiallodynic activity in rat […] model assessed as reversal of complete Freund's adjuvant-induced allodynia at 30 mg/kg, po after 4 hrs; assay type: functional
Mus musculus [13] = assay: Neurotoxicity in conscious mouse assessed as effect on CNS function at 100 mg/kg after 24 hrs; assay type: toxicity, organism-based, Central nervous system; set-up: dose 100 mg/kg; conditions: in vivo
[14] = Metabolic stability in rat liver microsomes assessed as compound remaining after 60 mins in presence of 10 uM substrate; assay type: ADME, Microsome; conditions: read-out: Stability
Mus musculus [15] = assay: Neurotoxicity in conscious mouse assessed as effect on CNS function at 100 mg/kg after 5 hrs; assay type: toxicity, organism-based, Central nervous system; set-up: dose 100 mg/kg; conditions: in vivo
Canis familiaris [16] = assay: Cardiotoxicity in anesthetized dog assessed as effect on mean arterial pressure at 10 mg/kg, iv; assay type: toxicity, organism-based, Canis lupus familiaris, Artery; set-up: dose 10 mg/kg, route intravenous; conditions: in vivo
Cytochrome P450 3A4 = Cytochrome P450 3A4 (Homo sapiens, UniProt P08684); assay: Inhibition of CYP3A4; assay type: ADME
Canis familiaris [17] = assay: Cardiotoxicity in anesthetized dog assessed as effect on mean arterial pressure at 1 mg/kg, iv; assay type: toxicity, organism-based, Canis lupus familiaris, Artery; set-up: dose 1 mg/kg, route intravenous; conditions: in vivo
Mus musculus [18] = assay: Neurotoxicity in conscious mouse assessed as effect on body temperature at 100 mg/kg after 2 hrs; assay type: toxicity, organism-based; set-up: dose 100 mg/kg; conditions: in vivo
[19] = AUC in dog at 20 mg/kg, po; assay type: ADME, organism-based, Canis lupus familiaris; set-up: dose 20 mg/kg, route oral; conditions: plasma
Mus musculus [20] = assay: Neurotoxicity in conscious mouse assessed as effect on behavior at 100 mg/kg after 24 hrs; assay type: toxicity, organism-based; set-up: dose 100 mg/kg; conditions: in vivo
Rattus norvegicus [21] = assay: Antiallodynic activity in rat spinal nerve ligation model of neuropathic pain assessed as reversal of allodynia at 30 mg/kg, po after 2 hrs; assay type: functional
[22] = AUC in dog at 2 mg/kg, po; assay type: ADME, organism-based, Canis lupus familiaris; set-up: dose 2 mg/kg, route oral; conditions: plasma
[23] = target: Sodium channel protein type 5 subunit alpha (Homo sapiens, UniProt Q14524); assay: Inhibition of Nav1.5 by VIPR assay
Canis familiaris [24] = assay: Clearance in dog plasma at 0.5 mg/kg, iv and 2 mg/kg, po; assay type: ADME, organism-based, Canis lupus familiaris; conditions: in vivo
Mus musculus [25] = assay: Neurotoxicity in conscious mouse assessed as effect on CNS function at 100 mg/kg after 2 hrs; assay type: toxicity, organism-based, Central nervous system; set-up: dose 100 mg/kg; conditions: in vivo
Rattus norvegicus [26] = assay: Neurotoxicity in rat assessed as delay in motor coordination at 100 mg/kg, po by rotarod test (reference value: 18%); assay type: toxicity, organism-based; set-up: dose 100 mg/kg, route oral; conditions: in vivo
Rattus norvegicus [27] = assay: Antiallodynic activity in rat spinal nerve ligation model of neuropathic pain assessed as reversal of allodynia at 10 mg/kg, po after 2 hrs; assay type: functional; conditions: Rattus norvegicus, Spinal nerve, 2 h
Mus musculus [28] = assay: Neurotoxicity in conscious mouse assessed as effect on body temperature at 100 mg/kg after 24 hrs; assay type: toxicity, organism-based; set-up: dose 100 mg/kg; conditions: in vivo
[29] = Cmax in dog at 20 mg/kg, po; assay type: ADME, organism-based, Canis lupus familiaris; set-up: dose 20 mg/kg, route oral; conditions: in vivo
hERG (KCNH2) [30] = target: T1, hERG (KCNH2); assay: Inhibition of human ERG at 30 uM by electrophysiology assay
[31] = Bioavailability in dog at 0.5 mg/kg, iv and 2 mg/kg, po; assay type: ADME, organism-based, Canis lupus familiaris; conditions: in vivo
[32] = Cmax in rat at 1 mg/kg, iv and 3 mg/kg, po; assay type: ADME, organism-based; conditions: in vivo
Rattus norvegicus [33] = assay: Clearance in rat plasma at 1 mg/kg, iv and 3 mg/kg, po; assay type: ADME, organism-based; conditions: in vivo
Cytochrome P450 2C9 = Cytochrome P450 2C9 (Homo sapiens, UniProt P11712); assay: Inhibition of CYP2C9; assay type: ADME
Rattus norvegicus [34] = assay: Antiallodynic activity in rat […] model assessed as reversal of complete Freund's adjuvant-induced allodynia at 30 mg/kg, po after 2 hrs; assay type: functional
Rattus norvegicus [35] = assay: Antiallodynic activity in rat spinal nerve ligation model of neuropathic pain assessed as reversal of allodynia at 10 mg/kg, po after 4 hrs; assay type: functional; conditions: Rattus norvegicus, Spinal nerve, 4 h
Mus musculus [36] = assay: Neurotoxicity in conscious mouse assessed as effect on motor activity at 100 mg/kg after 5 hrs; assay type: toxicity, organism-based; set-up: dose 100 mg/kg; conditions: in vivo
[37] = Bioavailability in rat at 1 mg/kg, iv and 3 mg/kg, po; assay type: ADME, organism-based; conditions: in vivo
Mus musculus [38] = assay: Neurotoxicity in conscious mouse assessed as effect on behavior at 100 mg/kg after 2 hrs; assay type: toxicity, organism-based; set-up: dose 100 mg/kg; conditions: in vivo
Canis familiaris [39] = assay: Cardiotoxicity in anesthetized dog assessed as increase in PR interval at 10 mg/kg, iv; assay type: toxicity, organism-based, Canis lupus familiaris; set-up: dose 10 mg/kg, route intravenous; conditions: in vivo
Rattus norvegicus [40] = assay: Antiallodynic activity in rat spinal nerve ligation model of neuropathic pain assessed as reversal of allodynia at 3 mg/kg, po after 2 hrs; assay type: functional
Mus musculus [41] = assay: Neurotoxicity in conscious mouse assessed as effect on behavior at 100 mg/kg after 5 hrs; assay type: toxicity, organism-based; set-up: dose 100 mg/kg; conditions: in vivo
[42] = AUC in rat at 3 mg/kg, po; assay type: ADME, organism-based; set-up: dose 3 mg/kg, route oral; conditions: plasma
[43] = Cmax in dog at 60 mg/kg, po; assay type: ADME, organism-based, Canis lupus familiaris; set-up: dose 60 mg/kg, route oral; conditions: in vivo
[44] = target: Sodium channel protein type 10 subunit alpha (Homo sapiens, UniProt Q9Y5Y9); assay: Inhibition of human Nav1.8 by VIPR assay
Chain of Sodium channel protein type 10 subunit alpha (Q9Y5Y9 whole entry): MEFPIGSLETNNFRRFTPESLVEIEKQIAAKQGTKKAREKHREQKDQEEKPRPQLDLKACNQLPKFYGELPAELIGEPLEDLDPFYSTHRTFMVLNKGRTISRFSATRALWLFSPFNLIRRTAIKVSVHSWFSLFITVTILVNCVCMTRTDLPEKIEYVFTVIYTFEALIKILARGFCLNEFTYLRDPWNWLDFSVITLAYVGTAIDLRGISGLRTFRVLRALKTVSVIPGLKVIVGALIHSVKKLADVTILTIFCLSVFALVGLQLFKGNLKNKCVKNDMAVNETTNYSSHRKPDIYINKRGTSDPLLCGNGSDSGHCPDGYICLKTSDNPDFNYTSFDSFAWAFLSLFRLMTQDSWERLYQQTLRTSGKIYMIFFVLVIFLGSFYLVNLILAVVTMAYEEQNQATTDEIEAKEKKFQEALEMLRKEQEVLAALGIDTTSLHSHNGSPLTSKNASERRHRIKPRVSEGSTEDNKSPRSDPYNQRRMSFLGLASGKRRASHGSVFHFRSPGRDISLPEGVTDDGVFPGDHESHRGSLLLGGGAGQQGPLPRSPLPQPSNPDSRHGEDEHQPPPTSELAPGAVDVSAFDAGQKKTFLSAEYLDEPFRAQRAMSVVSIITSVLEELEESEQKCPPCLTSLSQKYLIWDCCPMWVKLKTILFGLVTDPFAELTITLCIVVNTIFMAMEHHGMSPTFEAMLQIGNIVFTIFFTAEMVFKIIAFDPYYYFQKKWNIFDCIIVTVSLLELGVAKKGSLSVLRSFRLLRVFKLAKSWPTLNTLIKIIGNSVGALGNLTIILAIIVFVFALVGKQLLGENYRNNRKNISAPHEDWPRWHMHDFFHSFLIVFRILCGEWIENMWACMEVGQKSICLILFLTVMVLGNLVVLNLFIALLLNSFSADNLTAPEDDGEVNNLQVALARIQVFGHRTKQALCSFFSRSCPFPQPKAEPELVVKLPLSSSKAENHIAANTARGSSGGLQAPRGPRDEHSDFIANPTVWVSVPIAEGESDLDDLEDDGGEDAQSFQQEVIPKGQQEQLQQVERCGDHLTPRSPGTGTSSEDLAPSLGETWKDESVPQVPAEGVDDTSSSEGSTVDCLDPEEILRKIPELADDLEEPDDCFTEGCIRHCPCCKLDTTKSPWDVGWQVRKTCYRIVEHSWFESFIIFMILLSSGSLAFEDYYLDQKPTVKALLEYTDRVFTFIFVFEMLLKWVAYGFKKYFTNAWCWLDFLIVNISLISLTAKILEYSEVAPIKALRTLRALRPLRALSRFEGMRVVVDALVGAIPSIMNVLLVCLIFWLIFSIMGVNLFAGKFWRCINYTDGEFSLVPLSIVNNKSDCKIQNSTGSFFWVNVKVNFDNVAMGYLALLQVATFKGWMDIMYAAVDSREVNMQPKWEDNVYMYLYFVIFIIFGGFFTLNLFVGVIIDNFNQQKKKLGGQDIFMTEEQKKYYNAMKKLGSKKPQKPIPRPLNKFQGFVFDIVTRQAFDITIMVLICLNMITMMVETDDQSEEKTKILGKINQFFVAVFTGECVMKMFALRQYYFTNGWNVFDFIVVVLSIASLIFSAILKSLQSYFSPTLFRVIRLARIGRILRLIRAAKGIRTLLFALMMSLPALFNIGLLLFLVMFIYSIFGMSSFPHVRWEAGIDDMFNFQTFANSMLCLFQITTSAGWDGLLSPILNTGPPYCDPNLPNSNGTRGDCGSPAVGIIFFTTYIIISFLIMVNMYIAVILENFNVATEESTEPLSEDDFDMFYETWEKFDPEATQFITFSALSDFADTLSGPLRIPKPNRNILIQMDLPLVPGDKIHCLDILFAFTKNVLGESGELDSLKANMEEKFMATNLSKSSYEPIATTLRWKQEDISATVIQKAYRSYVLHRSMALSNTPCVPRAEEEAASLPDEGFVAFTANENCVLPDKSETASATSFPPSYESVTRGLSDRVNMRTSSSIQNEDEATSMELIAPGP

T1 sequence (Q12809 whole entry): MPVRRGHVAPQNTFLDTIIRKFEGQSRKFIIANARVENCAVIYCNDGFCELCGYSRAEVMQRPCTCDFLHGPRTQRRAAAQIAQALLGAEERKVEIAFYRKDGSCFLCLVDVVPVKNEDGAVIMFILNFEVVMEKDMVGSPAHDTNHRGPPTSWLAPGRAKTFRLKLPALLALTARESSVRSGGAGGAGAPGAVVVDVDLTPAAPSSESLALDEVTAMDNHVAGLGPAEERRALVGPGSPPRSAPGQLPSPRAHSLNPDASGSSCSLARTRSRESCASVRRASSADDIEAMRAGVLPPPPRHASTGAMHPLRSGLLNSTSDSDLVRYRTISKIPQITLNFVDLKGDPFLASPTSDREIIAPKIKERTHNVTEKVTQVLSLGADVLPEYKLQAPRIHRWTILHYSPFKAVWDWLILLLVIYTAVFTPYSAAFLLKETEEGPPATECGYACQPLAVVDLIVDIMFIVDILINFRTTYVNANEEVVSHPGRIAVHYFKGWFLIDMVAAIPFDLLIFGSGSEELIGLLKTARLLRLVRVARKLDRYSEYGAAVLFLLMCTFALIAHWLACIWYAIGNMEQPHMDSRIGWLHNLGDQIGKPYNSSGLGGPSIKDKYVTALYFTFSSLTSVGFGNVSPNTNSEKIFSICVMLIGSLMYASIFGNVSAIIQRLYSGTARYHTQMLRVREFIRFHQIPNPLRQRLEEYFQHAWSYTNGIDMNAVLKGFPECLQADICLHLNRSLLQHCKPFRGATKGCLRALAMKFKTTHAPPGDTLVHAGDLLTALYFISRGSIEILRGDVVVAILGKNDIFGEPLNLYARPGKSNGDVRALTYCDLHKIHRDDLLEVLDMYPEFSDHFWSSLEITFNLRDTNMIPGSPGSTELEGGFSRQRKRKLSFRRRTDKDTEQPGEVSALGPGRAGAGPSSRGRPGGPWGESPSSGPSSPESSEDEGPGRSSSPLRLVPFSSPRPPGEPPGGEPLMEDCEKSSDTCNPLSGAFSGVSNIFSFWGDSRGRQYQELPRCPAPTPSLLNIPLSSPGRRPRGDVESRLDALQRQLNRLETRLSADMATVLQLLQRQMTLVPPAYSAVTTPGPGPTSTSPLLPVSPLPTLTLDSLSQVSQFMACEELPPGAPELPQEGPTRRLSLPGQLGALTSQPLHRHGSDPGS
Chain of Cytochrome P450 3A4 (P08684 whole entry): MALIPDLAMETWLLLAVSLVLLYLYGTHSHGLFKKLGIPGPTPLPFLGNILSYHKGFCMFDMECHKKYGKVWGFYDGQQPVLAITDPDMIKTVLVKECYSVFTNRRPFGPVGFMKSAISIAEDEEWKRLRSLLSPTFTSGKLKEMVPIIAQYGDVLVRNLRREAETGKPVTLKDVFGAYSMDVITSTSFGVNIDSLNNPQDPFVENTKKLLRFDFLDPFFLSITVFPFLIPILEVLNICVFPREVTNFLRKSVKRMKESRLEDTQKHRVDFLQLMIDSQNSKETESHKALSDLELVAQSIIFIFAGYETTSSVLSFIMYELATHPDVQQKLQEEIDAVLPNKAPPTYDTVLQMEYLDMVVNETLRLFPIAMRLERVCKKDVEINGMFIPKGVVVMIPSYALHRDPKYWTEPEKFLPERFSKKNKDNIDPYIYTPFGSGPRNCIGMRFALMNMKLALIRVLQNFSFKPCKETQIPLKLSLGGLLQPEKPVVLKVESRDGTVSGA
Chain of Cytochrome P450 2C9 (P11712 whole entry): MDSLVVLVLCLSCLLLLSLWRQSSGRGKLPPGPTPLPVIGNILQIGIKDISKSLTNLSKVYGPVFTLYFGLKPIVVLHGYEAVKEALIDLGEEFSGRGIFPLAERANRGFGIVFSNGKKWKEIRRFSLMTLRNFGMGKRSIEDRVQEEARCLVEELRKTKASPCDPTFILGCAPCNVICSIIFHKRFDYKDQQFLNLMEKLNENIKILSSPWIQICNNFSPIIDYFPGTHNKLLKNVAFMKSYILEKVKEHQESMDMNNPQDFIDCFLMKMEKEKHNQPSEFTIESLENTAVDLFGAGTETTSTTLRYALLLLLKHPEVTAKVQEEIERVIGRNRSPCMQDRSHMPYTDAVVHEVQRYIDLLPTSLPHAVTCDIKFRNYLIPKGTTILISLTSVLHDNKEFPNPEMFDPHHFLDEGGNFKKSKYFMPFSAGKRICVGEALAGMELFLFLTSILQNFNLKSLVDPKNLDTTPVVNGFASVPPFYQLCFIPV
Chain of Cytochrome P450 2D6 (P10635 whole entry): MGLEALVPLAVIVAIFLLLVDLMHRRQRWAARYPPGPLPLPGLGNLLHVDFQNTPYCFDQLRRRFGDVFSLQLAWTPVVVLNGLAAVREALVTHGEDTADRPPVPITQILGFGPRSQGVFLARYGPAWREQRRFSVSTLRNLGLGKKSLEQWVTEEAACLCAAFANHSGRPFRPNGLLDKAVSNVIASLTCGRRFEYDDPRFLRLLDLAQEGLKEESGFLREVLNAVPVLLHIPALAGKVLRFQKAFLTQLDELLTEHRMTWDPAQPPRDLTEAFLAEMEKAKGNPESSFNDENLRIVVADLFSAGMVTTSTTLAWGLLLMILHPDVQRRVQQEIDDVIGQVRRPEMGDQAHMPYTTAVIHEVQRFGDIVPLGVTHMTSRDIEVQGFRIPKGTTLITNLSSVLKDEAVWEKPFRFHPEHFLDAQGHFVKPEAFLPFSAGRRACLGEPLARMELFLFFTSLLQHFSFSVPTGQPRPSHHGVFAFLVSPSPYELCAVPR

NC(=O)c1cc(C(N)=O)n(-c2cccc(-c3cc(C(F)(F)F)ccc3C(F)(F)F)c2)n1
inhibition at 10 µM (hERG (KCNH2) [1]): 17%
Activity (Canis familiaris [2]): Non-toxic
Cmax [3]: 2.92 µM
Activity (Canis familiaris [4]): Non-toxic
half-life [5]: 12 h
Activity (Canis familiaris [6]): Non-toxic
IC50 (Cytochrome P450 2D6): > 100 µM
Activity (Canis familiaris [7]): Non-toxic
remaining at 1 h, 10 uM [8]: > 99%
Activity (Canis familiaris [9]): Non-toxic
inhibition at 10 µM [10]: 0%
IC50 [11]: > 25 µM
inhibition in vivo at 30 mg/kg (Rattus norvegicus [12]): 53%
Activity (Mus musculus [13]): Non-toxic
remaining at 1 h, 10 uM [14]: > 99%
Activity (Mus musculus [15]): Non-toxic
Activity (Canis familiaris [16]): Non-toxic
IC50 (Cytochrome P450 3A4): > 100 µM
Activity (Canis familiaris [17]): Non-toxic
Activity (Mus musculus [18]): Non-toxic
AUC [19]: 372 µM·h
Activity (Mus musculus [20]): Non-toxic
inhibition in vivo at 30 mg/kg (Rattus norvegicus [21]): 56%
AUC [22]: 50 µM·h
IC50 [23]: 1.32 µM
clearance (Canis familiaris [24]): 0.5 mL/min/kg
Activity (Mus musculus [25]): Non-toxic
Activity (Rattus norvegicus [26]): -11%
inhibition in vivo at 10 mg/kg (Rattus norvegicus [27]): 44%
Activity (Mus musculus [28]): Non-toxic
Cmax [29]: 20.3 µM
inhibition at 30 µM (hERG (KCNH2) [30]): 15%
bioavailability [31]: 33%
Cmax [32]: 2.64 µM
clearance (Rattus norvegicus [33]): 5 mL/min/kg
IC50 (Cytochrome P450 2C9): 20.3 µM
inhibition in vivo at 30 mg/kg (Rattus norvegicus [34]): 46%
inhibition in vivo at 10 mg/kg (Rattus norvegicus [35]): 34%
Activity (Mus musculus [36]): Non-toxic
bioavailability [37]: 60%
Activity (Mus musculus [38]): Non-toxic
Activity (Canis familiaris [39]): 6%
inhibition in vivo at 3 mg/kg (Rattus norvegicus [40]): 18%
Activity (Mus musculus [41]): Non-toxic
AUC [42]: 5.6 µM·h
Cmax [43]: 24.4 µM
IC50 [44]: 2 µM
